From US20070087326A1, “Method of measuring the biological activity of an urotensin II receptor” (priority 2005, published 2007)
Bridge positions count the residues as written; N and C are the ends. Square brackets hold non-standard residues; d marks the D form. Peptide text beside a SMILES is read from it. Pen = CC(C)(S)[C@H](N)C(=O)O; Orn = NCCC[C@H](N)C(=O)O

How the values were obtained:
[1] = tested on: panel of receptor/ion channels; assay: binding to a panel of receptor/ion channels; details: data not shown
[2] = molecular target: T1, recombinant rat U-II receptors (CHOrUII cells) (Rattus norvegicus, UniProt P49684); assay: CDS (CellKey) electrical impedance assay in CHOrUII cells; assay type: cell-based; details: FIG. 3C
T1 construct: expressed in transfected cells; host or cells: CHO-K1 (ATCC CRL-9618), G418 selection
T1 sequence (P49684 1-386): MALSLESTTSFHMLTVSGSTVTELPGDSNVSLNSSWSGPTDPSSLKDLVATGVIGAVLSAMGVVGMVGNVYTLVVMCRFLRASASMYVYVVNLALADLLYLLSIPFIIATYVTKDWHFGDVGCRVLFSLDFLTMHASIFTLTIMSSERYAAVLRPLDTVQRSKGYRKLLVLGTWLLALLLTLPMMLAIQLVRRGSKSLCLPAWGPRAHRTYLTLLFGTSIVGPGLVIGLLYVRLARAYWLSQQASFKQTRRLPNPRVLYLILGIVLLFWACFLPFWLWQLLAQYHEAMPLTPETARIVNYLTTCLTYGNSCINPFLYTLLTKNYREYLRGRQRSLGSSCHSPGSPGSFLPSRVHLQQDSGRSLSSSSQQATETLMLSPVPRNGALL
Procedure: The CHOrUII cells were under G418 selection. […] Urantide (PUT-3639-P1) was purchased from Peptide International (Louisville, Ky.). Cells of RMS13 and 6D9 were cultured in RPMI medium (ATCC 30-2001) containing 10% FBS (Cat. No. SH30070.03, Hyclone, Logan, Utah). CHOrUII cells were grown in DMEMF12 (Gibco #11330-032) medium containing G418 at 1 mg/ml concentration. Cells were plated at 60 or 70K/well in a medium indicated above overnight. The medium was removed and replaced with Hanks balanced salt solution (HBSS, Gibco) containing 20 mM Hepes and 0.1% BSA. Electrical impedance was measured 2-5 minutes prior to compound addition. Compounds were added and measurements continued. […] In particular, 100 mV voltage was applied to the cells with a sweeping frequency range of 1 kHz to […]. Cell density-dependence responses to Urotensin II (500 nM) were analyzed to determine the optimum cell density for the CDS assay at 28° C.

UT receptor = molecular target: T2, UT receptor (Rattus norvegicus, UniProt P49684); details: competitive UT receptor antagonist, rat aorta (Patacchini, 2003); cited from earlier work
T2 construct: pure UT receptor antagonist in rat aorta vasoconstriction assays; host or cells: rat aorta tissue
T2 sequence (P49684 1-386): T1 sequence (P49684 1-386)

[3] = molecular target: T3, endogeneous human U-II receptors (6D9 cells, sub-clone of RMS13) (Homo sapiens, UniProt Q9UKP6); assay: CDS (CellKey) electrical impedance assay in 6D9 cells; assay type: cell-based; details: FIG. 3B
T3 construct: Cells of RMS13 and 6D9 have endogeneous human U-II receptors; host or cells: RMS13 (human) and 6D9, a sub-clone of RMS13
T3 sequence (Q9UKP6 1-389): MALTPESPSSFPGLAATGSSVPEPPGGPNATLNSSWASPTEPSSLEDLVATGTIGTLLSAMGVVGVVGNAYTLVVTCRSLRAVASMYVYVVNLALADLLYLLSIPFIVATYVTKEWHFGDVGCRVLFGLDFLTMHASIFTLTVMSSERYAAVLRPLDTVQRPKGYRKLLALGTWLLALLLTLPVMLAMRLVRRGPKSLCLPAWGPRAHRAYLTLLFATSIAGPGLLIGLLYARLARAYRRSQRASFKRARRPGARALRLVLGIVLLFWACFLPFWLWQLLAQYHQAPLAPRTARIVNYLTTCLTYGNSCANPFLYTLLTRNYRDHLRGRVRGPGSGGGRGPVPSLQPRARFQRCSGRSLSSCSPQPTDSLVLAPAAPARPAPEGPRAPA
Procedure: (§1) RMS13 was obtained from ATCC (ATCC NO: CRL-2061™, Manassas, Va.). […] The parent of the CHOrUII cells, CHO-K1 was obtained from ATCC (CAT# CRL-9618_CHOK1). The rat UT receptor was recombinantly cloned into CHO-K1 following standard molecular biology cloning techniques. The CHOrUII cells were under G418 selection. […] Angiotensin was purchased from Sigma. Urantide (PUT-3639-P1) was purchased from Peptide International (Louisville, Ky.).
(§2) Cells of RMS13 and 6D9 were cultured in RPMI medium (ATCC 30-2001) containing 10% FBS (Cat. No. SH30070.03, Hyclone, Logan, Utah). CHOrUII cells were grown in DMEMF12 (Gibco #11330-032) medium containing G418 at 1 mg/ml concentration. Cells were plated at 60 or 70K/well in a medium indicated above overnight. The medium was removed and replaced with Hanks balanced salt solution (HBSS, Gibco) containing 20 mM Hepes and 0.1% BSA. Electrical impedance was measured 2-5 minutes prior to compound addition. Compounds were added and measurements continued. The electrical impedance of the cells was measured using CellKey™ (MDS Sciex, Concord, Ontario) according to the protocol of the manufacturer, see for example Ciambrone et al. (2004, J Biomol Screen. 9(6): 467-80). […]
(§3) Cell density-dependence responses to Urotensin II (500 nM) were analyzed to determine the optimum cell density for the CDS assay at 28° C.

human UT receptor = molecular target: T4, human UT receptor (Homo sapiens, UniProt Q9UKP6); details: CHO cells over-expressing the human UT receptor (Camarda, 2004); cited from earlier work
T4 construct: host or cells: CHO cells over-expressing the human UT receptor
T4 sequence (Q9UKP6 1-389): T3 sequence (Q9UKP6 1-389)

[4] = molecular target: T5, endogeneous human U-II receptors (RMS13 cells) (Homo sapiens, UniProt Q9UKP6); assay: CDS (CellKey) electrical impedance assay in RMS13 cells; assay type: cell-based; details: FIG. 3A
T5 construct: Cells of RMS13 and 6D9 have endogeneous human U-II receptors; host or cells: RMS13 (human) and 6D9, a sub-clone of RMS13
T5 sequence (Q9UKP6 1-389): T3 sequence (Q9UKP6 1-389)
Procedure: as §1, §2, §3

[5] = molecular target: human U-II receptor (endogeneous, on RMS13 and 6D9 cells) (human) (UniProt Q9UKP6); assay: cell-based or functional assay

For `CC(C)[C@H](NC(=O)[C@@H]1CSSC(C)(C)[C@H](NC(=O)[C@@H](N)CC(=O)O)C(=O)N[C@@H](Cc2ccccc2)C(=O)N[C@H](Cc2c[nH]c3ccccc23)C(=O)N[C@@H](CCCN)C(=O)N[C@@H](Cc2ccc(O)cc2)C(=O)N1)C(=O)O` [Urantide] (H-D[Pen]F[dW][Orn]YCV-OH; disulfide 2-7), the “binding activity to proteins within a panel of receptor/ion channels” value [1] is listed as “minimal binding activity”, the “effect on U-II stimulated increase in electrical impedance” value (shortened to “effect on U-II stimulated increase”) [2] is listed as “blocked the U-II stimulated increase” and the pA2 (UT receptor) is listed as 8.3. For the same compound, the “effect on U-II stimulated increase” value [3] was “blocked the U-II stimulated increase”, the agonist activity (human UT receptor) was “potent U-II agonist” and the “effect on U-II stimulated increase” value [4] was “blocked the U-II stimulated increase”.

Urotensin-II (peptide) gave an EC50 of the dose dependent increase in electrical impedance of 6D9 cells (CDS, CellKey) [5] of 0.42 nM and an EC50 of the dose dependent increase in electrical impedance of RMS13 cells (CDS, CellKey) [5] of 0.27 nM.

In the case of angiotensin, the “effect on U-II stimulated increase” value [2] is reported as “did not”, the “effect on U-II stimulated increase” value [3] is reported as “did not” and the “effect on U-II stimulated increase” value [4] is reported as “did not”.
